According to US20260266848A1, “COMPOSITIONS AND METHODS FOR DIAGNOSING AND TREATING DYSTONIA” (Duke University, priority 2023, published 2026):

Test system: DYT1 MEF secreted EVs
Assay: Small RNAseq of miRNAs in EVs secreted by DYT1 vs WT MEFs, ritonavir 24 h
Format: cell-based, mouse
Conditions: 24 hour culture exposure
Procedure: RNA was isolated from the DYT1 vs WT mouse embryonic fibroblast (MEF) secreted EVs, using the same cultures used in proteomic experiments. Small RNA sequencing was performed using a Illumina Novoseq 500. […] The number of independent culture preparations per genotype was three (N=3). The EV fraction was divided and separately analyzed for proteins and RNAs. […] Genotype-disrupted miRNAs and genotype-directionality as identified in FIG. 6A are indicated by blue and red dots in FIG. 6B. […] Blue and red data points of FIG. 6C identify genotype effect and directionality originally as in FIG. 6A.

SMILES: CC(C)c1nc(CN(C)C(=O)N[C@H](C(=O)N[C@@H](Cc2ccccc2)C[C@H](O)[C@H](Cc2ccccc2)NC(=O)OCc2cncs2)C(C)C)cs1 [ritonavir]
- effect on genotype-disrupted subset of EV miRNAs: strong correlation of corrective effects
- effect on genotype-disrupted subset of EV miRNAs (listed as Ritonavir): stronger correlation of corrective effects
